From ChEMBL document CHEMBL1201862, “PubChem BioAssay data set” (2004)
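1) Cells in 96-well plates. 2) Compound, 48 h, 5 concentrations. 3) Linear interpolation between surrounding doses. 4) Unreached endpoint = highest concentration. Here, GI50 denotes the concentration required for 50% inhibition of growth.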 Active and inactive are the calls of the source. Cut-off read from the data, not from the text of the source: active = GI50 up to about 1.1 µM and inactive = higher.

What was measured:
Test in all cases: DTP human tumour cell line panel, 48 h
ACHN = tested on: ACHN
CAKI-1 = tested on: CAKI-1
HCC 2998 = tested on: HCC 2998
Hs-578T = tested on: Hs-578T
LOX IMVI = tested on: LOX IMVI
M14 = tested on: M14
MCF7 = tested on: MCF7
MOLT-4 = tested on: MOLT-4
NCI-H226 = tested on: NCI-H226
PC-3 = tested on: PC-3
RXF 393 = tested on: RXF 393
SF-268 = tested on: SF-268
SF-295 = tested on: SF-295
SF-539 = tested on: SF-539
SK-MEL-5 = tested on: SK-MEL-5
SK-OV-3 = tested on: SK-OV-3
SW-620 = tested on: SW-620
U-251 = tested on: U-251
UO-31 = tested on: UO-31
Malme-3M = tested on: Malme-3M

| SMILES | GI50 (ACHN) | GI50 (CAKI-1) | GI50 (HCC 2998) | GI50 (Hs-578T) | GI50 (LOX IMVI) | GI50 (M14) | GI50 (MCF7) | GI50 (MOLT-4) | GI50 (NCI-H226) | GI50 (PC-3) | GI50 (RXF 393) | GI50 (SF-268) | GI50 (SF-295) | GI50 (SF-539) | GI50 (SK-MEL-5) | GI50 (SK-OV-3) | GI50 (SW-620) | GI50 (U-251) | GI50 (UO-31) | GI50 (Malme-3M) |
| --- | --- | --- | --- | --- | --- | --- | --- | --- | --- | --- | --- | --- | --- | --- | --- | --- | --- | --- | --- | --- |
| Cc1sc(NC=C2C(=O)CC(C)(C)CC2=O)nc1-c1ccccc1 | > 100 µM (inactive) | > 100 µM (inactive) | > 100 µM (inactive) | > 100 µM (inactive) | > 100 µM (inactive) | > 100 µM (inactive) | > 100 µM (inactive) | > 100 µM (inactive) | > 100 µM (inactive) | > 100 µM (inactive) | > 100 µM (inactive) | > 100 µM (inactive) | > 100 µM (inactive) | > 100 µM (inactive) | > 100 µM (inactive) | > 100 µM (inactive) | > 100 µM (inactive) | > 100 µM (inactive) | > 100 µM (inactive) |  |
| CCOC(=O)NC(Nc1ccc(S(=O)(=O)Nc2ncccn2)cc1)(C(=O)OCC)C(F)(F)F (configuration not stated) | > 100 µM (inactive) | > 100 µM (inactive) | > 100 µM (inactive) | > 100 µM (inactive) | > 100 µM (inactive) | > 100 µM (inactive) | 0.279 µM (active) | > 100 µM (inactive) | > 100 µM (inactive) | > 100 µM (inactive) |  | > 100 µM (inactive) | > 100 µM (inactive) | > 100 µM (inactive) | > 100 µM (inactive) | > 100 µM (inactive) | > 100 µM (inactive) | > 100 µM (inactive) | > 100 µM (inactive) | > 100 µM (inactive) |
| Cc1ccc(NC(=S)NNC(=O)c2cc(-c3ccccc3)nc3ccccc23)cc1 | 16.3 µM (inactive) | 18 µM (inactive) | 10.8 µM (inactive) | 17.4 µM (inactive) |  | 11.9 µM (inactive) | 11.2 µM (inactive) | 14.3 µM (inactive) | 18.7 µM (inactive) | 12 µM (inactive) | 12.8 µM (inactive) | 15.8 µM (inactive) | 5.92 µM (inactive) | 15.7 µM (inactive) | 10.4 µM (inactive) | 16.5 µM (inactive) | 10.4 µM (inactive) | 5.68 µM (inactive) | 12.7 µM (inactive) | 6.35 µM (inactive) |
| CN1C(=O)C(/C=N/NC(=O)c2cccnc2)C(N)N(C)C1=O (configuration not stated) | > 100 µM (inactive) | > 100 µM (inactive) | > 100 µM (inactive) | > 100 µM (inactive) |  | > 100 µM (inactive) | > 100 µM (inactive) | > 100 µM (inactive) | > 100 µM (inactive) | > 100 µM (inactive) | > 100 µM (inactive) | > 100 µM (inactive) | > 100 µM (inactive) |  | > 100 µM (inactive) | > 100 µM (inactive) | > 100 µM (inactive) | > 100 µM (inactive) | > 100 µM (inactive) | > 100 µM (inactive) |
| CC1=C(C(N)=O)C(c2ccncc2)C(C#N)C(=O)N1 (configuration not stated) | > 100 µM (inactive) | > 100 µM (inactive) | > 100 µM (inactive) | > 100 µM (inactive) | > 100 µM (inactive) | > 100 µM (inactive) | > 100 µM (inactive) | > 100 µM (inactive) |  | > 100 µM (inactive) | > 100 µM (inactive) | > 100 µM (inactive) | > 100 µM (inactive) | > 100 µM (inactive) | > 100 µM (inactive) | > 100 µM (inactive) | > 100 µM (inactive) | > 100 µM (inactive) | > 100 µM (inactive) |  |
| COc1ccccc1C(O)[C@@H]1C[C@@H]2[C@H]3CC[C@@](C)([C@@H]2O1)C3(C)C (some centres not stated) | 19.1 µM (inactive) | 23.8 µM (inactive) | 20.8 µM (inactive) | 14.7 µM (inactive) | 18.4 µM (inactive) | 21.4 µM (inactive) | 19 µM (inactive) | 15.4 µM (inactive) |  | 20.7 µM (inactive) | 17.4 µM (inactive) | 22.9 µM (inactive) | 18.4 µM (inactive) | 6.53 µM (inactive) | 17.3 µM (inactive) | 27.4 µM (inactive) | 16.1 µM (inactive) | 16.5 µM (inactive) | 17.9 µM (inactive) | 15 µM (inactive) |
| NCCC(N)C(=O)O (configuration not stated) | > 100 µM (inactive) | > 100 µM (inactive) |  | > 100 µM (inactive) | > 100 µM (inactive) | > 100 µM (inactive) | > 100 µM (inactive) | > 100 µM (inactive) | > 100 µM (inactive) | > 100 µM (inactive) | > 100 µM (inactive) | > 100 µM (inactive) | > 100 µM (inactive) | > 100 µM (inactive) | > 100 µM (inactive) | > 100 µM (inactive) | > 100 µM (inactive) | > 100 µM (inactive) | > 100 µM (inactive) | > 100 µM (inactive) |
| CC(C)(C)c1cc(-c2ccc(-c3cc(C(C)(C)C)c(O)c(C(C)(C)C)c3)cc2)cc(C(C)(C)C)c1O | > 100 µM (inactive) | > 100 µM (inactive) |  | > 10 µM (inactive) | > 100 µM (inactive) | > 100 µM (inactive) | > 100 µM (inactive) | > 100 µM (inactive) | > 100 µM (inactive) | > 100 µM (inactive) | > 100 µM (inactive) | > 100 µM (inactive) | > 100 µM (inactive) | > 100 µM (inactive) | > 100 µM (inactive) | > 100 µM (inactive) | > 100 µM (inactive) | > 100 µM (inactive) | > 100 µM (inactive) | > 100 µM (inactive) |
| CCCCCCCC(CC(=O)NC(CO)C(=O)NC(CO)CC(C)C)OC(=O)CC(CCCCCCC)OC(=O)CC(CCCCCCC)OC1OC(C)C(O)C(OC2OC(C)C(O)C(O)C2OC(C)=O)C1O (configuration not stated) | 15.5 µM (inactive) | 14.7 µM (inactive) | 12.5 µM (inactive) | 4.51 µM (inactive) |  | 5.69 µM (inactive) | 10.5 µM (inactive) | 2.54 µM (inactive) | 20.5 µM (inactive) | 4.06 µM (inactive) | 2.14 µM (inactive) | 5.89 µM (inactive) | 10 µM (inactive) | 11.1 µM (inactive) | 10.1 µM (inactive) | 16.6 µM (inactive) | 8.75 µM (inactive) | 7.03 µM (inactive) | 16.9 µM (inactive) | 10.9 µM (inactive) |
| CO[C@]12CC(=O)C3(C(C[C@H]4CC5CC[C@H]6C[C@@H](OC(C)=O)CC[C@]6(OC(C)=O)C5C[C@@]43C)C1)C1C[C@H]3[C@@H]4CC[C@H]5C[C@@H](OC(C)=O)CC[C@]5(OC(C)=O)[C@H]4CC[C@]3(C)C12 (some centres not stated) | > 100 µM (inactive) | > 100 µM (inactive) | 59.2 µM (inactive) | 71.4 µM (inactive) | 89.7 µM (inactive) | > 100 µM (inactive) | 80.5 µM (inactive) | 51.1 µM (inactive) |  | 50.8 µM (inactive) |  | > 100 µM (inactive) | 61.5 µM (inactive) | > 100 µM (inactive) | 24.4 µM (inactive) | > 100 µM (inactive) | > 100 µM (inactive) | 75.5 µM (inactive) | > 100 µM (inactive) | > 100 µM (inactive) |
| CC(C)(C)OC(=O)n1c(-c2ccccc2F)cc(=O)c2cc3c(cc21)OCO3 | 0.186 µM (active) |  | 0.0715 µM (active) | 0.0407 µM (active) | 0.111 µM (active) | 1.4 µM (inactive) | 0.0413 µM (active) | 0.106 µM (active) | 0.0791 µM (active) | 0.0391 µM (active) |  | 0.191 µM (active) | 0.05 µM (active) | 0.0736 µM (active) | 0.0521 µM (active) | 0.12 µM (active) | 0.0596 µM (active) | 0.0476 µM (active) | 0.188 µM (active) | 0.0526 µM (active) |
| CSC(=S)NN=C1CCCCC1 | 21 µM (inactive) | 20.1 µM (inactive) |  | 59 µM (inactive) | 20.5 µM (inactive) | 13.6 µM (inactive) | 33.8 µM (inactive) | 15.7 µM (inactive) | 13.9 µM (inactive) | 30.8 µM (inactive) | > 100 µM (inactive) | 38.5 µM (inactive) | 28.4 µM (inactive) | 24.4 µM (inactive) | 16 µM (inactive) | > 100 µM (inactive) | 48.2 µM (inactive) | 29.1 µM (inactive) | > 100 µM (inactive) | 14.6 µM (inactive) |
| NS(=O)(=O)c1ccc(N=C2C(=O)Nc3ccccc32)cc1 | > 100 µM (inactive) | > 100 µM (inactive) | > 100 µM (inactive) | > 100 µM (inactive) | 57.7 µM (inactive) | > 100 µM (inactive) | 90.2 µM (inactive) | > 100 µM (inactive) | > 100 µM (inactive) | > 100 µM (inactive) | > 100 µM (inactive) | > 100 µM (inactive) | > 100 µM (inactive) |  | 36.8 µM (inactive) | > 100 µM (inactive) | > 100 µM (inactive) | > 100 µM (inactive) | > 100 µM (inactive) | > 100 µM (inactive) |
| COC(=O)CCC(C)C1CCC2C3C(C[C@H](OC(C)=O)[C@]12C)[C@@]1(C)CCC2(C[C@H]1C[C@H]3OC(C)=O)OOC1(CC[C@]3(C)C4C[C@H](OC(C)=O)[C@]5(C)C(C(C)CCC(=O)OC)CCC5C4[C@H](OC(C)=O)C[C@@H]3C1)OO2 (some centres not stated) | 33.5 µM (inactive) | 24 µM (inactive) | > 100 µM (inactive) | > 100 µM (inactive) | > 100 µM (inactive) | > 100 µM (inactive) | > 100 µM (inactive) | 48.4 µM (inactive) | 66.8 µM (inactive) | > 100 µM (inactive) | > 100 µM (inactive) | 92 µM (inactive) | 78.7 µM (inactive) |  | > 100 µM (inactive) | > 100 µM (inactive) | > 100 µM (inactive) | 45.1 µM (inactive) | 30.9 µM (inactive) | > 100 µM (inactive) |
